This note sets out measurements from patent publication US20240336574A1 (LATIGO BIOTHERAPEUTICS, INC., priority 2021, published 2024).

This test concerns the target T1, recombinant human NaV1.8 stably transfected HEK cells (Homo sapiens, UniProt Q9Y5Y9).
T1 construct: expressed in transfected cells; host or cells: HEK cells, stably transfected
Kind of test: Compound profiling on NaV1.8, human NaV1.8 cell line, SyncroPatch384PE automated patch clamp assay (Example 102, first set of compounds, Table 16). Type of test: cell-based. The conditions noted are these: human NaV1.8 HEK cells, Table 16 (first set of compounds). The method, boiled down:
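IC50s come from two read-outs: resting-state block (P1, 10 mV step from −120 mV) and inactivated-state block (P2, after 10 s at −40 mV), scaled between DMSO and 250 μM tetracaine. Compounds (20–0.001 μM final, 1:3 steps) were applied for 5 min, 15 s sweeps. Cells kept at 30 °C the day before.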

Setting [1] is: inactivated state block (P2 measurement), read-out: P2IC50.
The mark [2] stands for this setting: resting state block (P1 measurement), read-out: P1IC50.

Where two headings read alike, the source gives them in different places.

T1 sequence (Q9Y5Y9 whole entry): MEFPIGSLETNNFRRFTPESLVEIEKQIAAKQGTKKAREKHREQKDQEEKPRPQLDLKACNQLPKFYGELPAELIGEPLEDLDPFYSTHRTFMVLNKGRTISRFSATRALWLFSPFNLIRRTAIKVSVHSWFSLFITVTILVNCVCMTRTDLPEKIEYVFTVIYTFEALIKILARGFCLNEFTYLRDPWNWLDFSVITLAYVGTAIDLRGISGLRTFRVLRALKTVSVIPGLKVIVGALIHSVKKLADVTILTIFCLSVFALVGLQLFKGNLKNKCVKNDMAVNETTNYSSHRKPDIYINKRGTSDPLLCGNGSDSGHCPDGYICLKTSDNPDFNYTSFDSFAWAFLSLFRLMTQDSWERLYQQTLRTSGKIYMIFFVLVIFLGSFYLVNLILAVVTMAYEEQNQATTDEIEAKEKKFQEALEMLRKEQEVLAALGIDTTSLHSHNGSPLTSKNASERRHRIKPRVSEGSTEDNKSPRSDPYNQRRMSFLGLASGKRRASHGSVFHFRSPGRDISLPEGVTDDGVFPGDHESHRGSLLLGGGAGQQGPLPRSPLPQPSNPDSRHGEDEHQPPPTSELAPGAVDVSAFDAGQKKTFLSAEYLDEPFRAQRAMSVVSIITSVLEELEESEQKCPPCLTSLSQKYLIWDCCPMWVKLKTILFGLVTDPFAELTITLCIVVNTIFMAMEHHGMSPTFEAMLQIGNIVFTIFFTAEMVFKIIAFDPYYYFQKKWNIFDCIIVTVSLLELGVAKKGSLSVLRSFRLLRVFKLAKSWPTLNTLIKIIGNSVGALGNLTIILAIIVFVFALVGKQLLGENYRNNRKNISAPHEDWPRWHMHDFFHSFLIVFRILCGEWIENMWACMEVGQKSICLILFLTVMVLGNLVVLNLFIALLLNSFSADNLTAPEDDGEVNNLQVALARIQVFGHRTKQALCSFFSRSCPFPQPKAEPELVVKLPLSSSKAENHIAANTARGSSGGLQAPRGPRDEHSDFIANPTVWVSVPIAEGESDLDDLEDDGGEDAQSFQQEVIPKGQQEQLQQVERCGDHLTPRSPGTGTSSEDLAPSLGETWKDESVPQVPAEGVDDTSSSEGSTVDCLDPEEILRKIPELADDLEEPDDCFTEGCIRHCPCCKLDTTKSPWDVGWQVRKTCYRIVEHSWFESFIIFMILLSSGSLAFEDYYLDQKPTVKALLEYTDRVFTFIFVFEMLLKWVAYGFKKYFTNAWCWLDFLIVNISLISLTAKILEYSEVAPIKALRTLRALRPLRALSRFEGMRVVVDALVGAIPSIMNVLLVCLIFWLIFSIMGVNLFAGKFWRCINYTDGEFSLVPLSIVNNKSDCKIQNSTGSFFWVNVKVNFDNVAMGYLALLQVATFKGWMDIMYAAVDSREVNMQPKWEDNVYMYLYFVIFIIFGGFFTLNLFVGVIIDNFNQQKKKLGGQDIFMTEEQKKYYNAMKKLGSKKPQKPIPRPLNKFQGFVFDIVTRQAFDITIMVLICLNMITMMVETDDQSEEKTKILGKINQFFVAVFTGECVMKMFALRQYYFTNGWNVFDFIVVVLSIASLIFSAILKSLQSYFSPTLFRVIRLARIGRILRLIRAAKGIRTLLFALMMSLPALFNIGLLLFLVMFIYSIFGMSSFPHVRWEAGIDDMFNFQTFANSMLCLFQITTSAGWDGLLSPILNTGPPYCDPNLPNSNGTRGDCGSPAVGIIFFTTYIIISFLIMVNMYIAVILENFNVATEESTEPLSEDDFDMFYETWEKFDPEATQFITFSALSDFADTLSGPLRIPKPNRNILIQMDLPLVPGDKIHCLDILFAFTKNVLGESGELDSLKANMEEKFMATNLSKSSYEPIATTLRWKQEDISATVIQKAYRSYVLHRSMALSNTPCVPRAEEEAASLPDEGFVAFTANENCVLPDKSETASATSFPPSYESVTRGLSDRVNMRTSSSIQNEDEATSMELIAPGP

As for `COc1cc(C#N)ccc1Oc1nnc(C(F)(F)F)c(C)c1C(=O)Nc1ccc[n+]([O-])c1` [Compound 1544, 3-(4-cyano-2-methoxy-phenoxy)-5-methyl-N-(1-oxidopyridin-1-ium-3-yl)-6-(trifluoromethyl)pyridazine-4-carboxamide], the IC50 runs as follows: under setting [1], 20 to 40 nM; under setting [2], 40 to 200 nM.

For the compound `CS(=O)(=O)c1cccc(NC(=O)c2cc(C(F)(F)F)cnc2Oc2cc(OC(F)(F)F)ccc2F)c1` [Compound 1658], the IC50 was in the range of 40 to 200 nM under setting [1] and 200 to 500 nM under setting [2].

On to `Cc1nc(F)ccc1Oc1ncc(C(F)(F)F)cc1C(=O)Nc1cccc(S(C)(=N)=O)c1` (stereo not drawn) [Compound 1589], for which the IC50 runs as follows: under setting [1], 40 to 200 nM; under setting [2], 40 to 200 nM.

`COc1cc(C#N)ccc1Oc1nnc(C(F)(F)F)c(C)c1C(=O)Nc1cccc([S@](C)(=N)=O)c1` (single isomer, unassigned) [Compound 1480]: the IC50 was at most 20 nM under setting [1] and at most 20 nM under setting [2].

As to `COc1cc(C#N)ccc1Oc1nnc(-c2ccc(C)cc2)c(C)c1C(=O)Nc1cccc(S(C)(=N)=O)c1` (stereo not drawn) [Compound 1450, 3-(4-cyano-2-methoxy-phenoxy)-5-methyl-N-[3-(methylsulfonimidoyl)phenyl]-6-(p-tolyl)pyridazine-4-carboxamide], the IC50 was at most 20 nM under setting [1] and at most 20 nM under setting [2].

On to `COc1cc(F)ccc1Oc1nnc(C(F)(F)F)c(OC)c1C(=O)Nc1cccc([S@@](C)(=N)=O)c1` [Compound 1517, (S)-3-(4-fluoro-2-methoxyphenoxy)-5-methoxy-N-(3-(S-methylsulfonimidoyl)phenyl)-6-(trifluoromethyl)pyridazine-4-carboxamide], for which the IC50 by setting is: under setting [1], 20 to 40 nM; under setting [2], at most 20 nM.

Regarding `Cc1cc(F)ccc1Oc1nnc(C(F)(F)F)c(C)c1C(=O)Nc1cc(C(N)=O)cc(S(C)(=O)=O)c1` [Compound 1407], the IC50 reads like this: under setting [1], 200 to 500 nM; under setting [2], 200 to 500 nM.

As to `COc1cc(C#N)ccc1Oc1nnc(C2=CCN(C)CC2)c(C)c1C(=O)Nc1cccc(S(C)(=N)=O)c1` (stereo not drawn) [Compound 1555, 3-(4-cyano-2-methoxy-phenoxy)-5-methyl-6-(1-methyl-3,6-dihydro-2H-pyridin-4-yl)-N-[3-(methylsulfonimidoyl)phenyl]pyridazine-4-carboxamide], the IC50 is 200 to 500 nM under setting [1] and 200 to 500 nM under setting [2].

As to `COc1cc(C#N)ccc1Oc1nnc(-c2ccccc2F)c(C)c1C(=O)Nc1cccc([S@](C)(=N)=O)c1` [Compound 1537, 3-(4-cyano-2-methoxyphenoxy)-6-(2-fluorophenyl)-N-{3-[(R)-imino(methyl)oxo-λ^6-sulfanyl]phenyl}-5-methylpyridazine-4-carboxamide], the IC50 under setting [1] was 20 to 40 nM and the IC50 under setting [2] was 20 to 40 nM.

On to `Cc1c(C(F)(F)F)nnc(OCC23CC(F)(C2)C3)c1C(=O)Nc1cccc(S(C)(=N)=O)c1` (stereo not drawn) [Compound 1470, 3-[(3-fluoro-1-bicyclo[1.1.1]pentanyl)methoxy]-5-methyl-N-[3-(methylsulfonimidoyl)phenyl]-6-(trifluoromethyl)pyridazine-4-carboxamide], for which the IC50 is, setting by setting: under setting [1], 200 to 500 nM; under setting [2], 200 to 500 nM.

Turning to `COCCNS(=O)(=O)c1cccc(NC(=O)c2c(Oc3ccc(C#N)cc3OC)nnc(C(F)(F)F)c2C)c1` [Compound 1439, 3-(4-cyano-2-methoxy-phenoxy)-N-[3-(2-methoxyethylsulfamoyl)phenyl]-5-methyl-6-(trifluoromethyl)pyridazine-4-carboxamide], the IC50 fell in the range of 40 to 200 nM under setting [1] and 40 to 200 nM under setting [2].

`COc1ccc(Oc2ncc(C(F)(F)F)cc2C(=O)Nc2cccc(S(C)(=N)=O)c2)cc1F` (stereo not drawn) [Compound 1640]: the IC50 under setting [1] fell in the range of 200 to 500 nM and the IC50 under setting [2] fell in the range of 200 to 500 nM.

Consider `COc1cc(C#N)ccc1Oc1nnc(-c2ccc(C#N)cc2)c(C)c1C(=O)Nc1cccc(S(C)(=N)=O)c1` (stereo not drawn) [Compound 1446, 3-(4-cyano-2-methoxy-phenoxy)-6-(4-cyanophenyl)-5-methyl-N-[3-(methylsulfonimidoyl)phenyl]pyridazine-4-carboxamide], for which the IC50 is, setting by setting: under setting [1], 20 to 40 nM; under setting [2], 20 to 40 nM.

As for `COc1cc(C#N)ccc1Oc1nnc(-c2ccc(C#N)cc2)c(C)c1C(=O)Nc1cccc([S@@](C)(=N)=O)c1` [Compound 1532, 3-(4-cyano-2-methoxyphenoxy)-6-(4-cyanophenyl)-N-{3-[(S)-imino(methyl)oxo-λ^6-sulfanyl]phenyl}-5-methylpyridazine-4-carboxamide], the IC50 was 40 to 200 nM under setting [1] and 40 to 200 nM under setting [2].

Consider `CCOc1ccc(Oc2ncc(C(F)(F)F)cc2C(=O)Nc2cccc(S(C)(=N)=O)c2)cc1` (stereo not drawn) [Compound 1609], for which the IC50 is, setting by setting: under setting [1], 40 to 200 nM; under setting [2], 40 to 200 nM.

As to `Cc1c(C(F)(F)F)nnc(Oc2ccc(C#N)cc2)c1C(=O)Nc1cccc(S(C)(=N)=O)c1` (stereo not drawn) [Compound 21], the IC50 reads like this: under setting [1], 40 to 200 nM; under setting [2], 20 to 40 nM.

For `COc1c(Oc2ncc(Br)cc2C(=O)Nc2ccnnc2)ccc(F)c1F` [Compound 1683], the IC50 reads like this: under setting [1], at most 20 nM; under setting [2], 20 to 40 nM.

For `Cc1c(Oc2nnc(C(F)(F)F)c(C)c2C(=O)Nc2cccc(S(C)(=N)=O)c2)ccc(OC(F)(F)F)c1F` (stereo not drawn) [Compound 1515, 3-[3-fluoro-2-methyl-4-(trifluoromethoxy)phenoxy]-N-{3-[imino(methyl)oxo-λ^6-sulfanyl]phenyl}-5-methyl-6-(trifluoromethyl)pyridazine-4-carboxamide], the IC50 under setting [1] was at most 20 nM and the IC50 under setting [2] was at most 20 nM.

Consider `Cc1cc(F)ccc1Oc1nnc(C2CC2)c(C)c1C(=O)Nc1cccc(S(C)(=N)=O)c1` (stereo not drawn) [Compound 1433, 6-cyclopropyl-3-(4-fluoro-2-methyl-phenoxy)-5-methyl-N-[3-(methylsulfonimidoyl)phenyl]pyridazine-4-carboxamide], for which the IC50 under setting [1] was in the range of 40 to 200 nM and the IC50 under setting [2] lay in the range of 40 to 200 nM.

Take `Cc1ccc(Oc2nnc(C(F)(F)F)c(C)c2C(=O)Nc2cccc(S(C)(=N)=O)c2)c(C)n1` (single isomer, unassigned) [Compound 1484, 3-[(2,6-dimethylpyridin-3-yl)oxy]-N-{3-[imino(methyl)oxo-λ^6-sulfanyl]phenyl}-5-methyl-6-(trifluoromethyl)pyridazine-4-carboxamide]: the IC50 runs as follows: under setting [1], 200 to 500 nM; under setting [2], 200 to 500 nM.

Consider `Cc1nc(C#N)ccc1Oc1ncc(C(F)(F)F)cc1C(=O)Nc1cccc(C(N)=O)c1` [Compound 1700], for which the IC50 by setting is: under setting [1], 200 to 500 nM; under setting [2], 200 to 500 nM.

`COc1cc(C#N)ccc1Oc1nnc(C(F)(F)F)c(C)c1C(=O)Nc1cccc(S(C)(=O)=O)c1` [Compound 4]: the IC50 under setting [1] was at most 20 nM and the IC50 under setting [2] was at most 20 nM.

For `Cc1c(C(F)(F)F)nnc(Oc2c(F)cc(OC(F)(F)F)cc2F)c1C(=O)Nc1cccc(S(C)(=O)=O)c1` [Compound 1423], the IC50 under setting [1] is 200 to 500 nM and the IC50 under setting [2] was in the range of 200 to 500 nM.

For `COc1cc(F)c(F)cc1Oc1ncc(C(F)(F)F)cc1C(=O)Nc1cccc(S(C)(=N)=O)c1` (stereo not drawn) [Compound 1617], the IC50 is, setting by setting: under setting [1], 20 to 40 nM; under setting [2], 20 to 40 nM.

Regarding `COc1c(Oc2nnc3c(c2C(=O)Nc2cccc(S(C)(=N)=O)c2)CCC3)ccc(F)c1F` (stereo not drawn) [Compound 1516, 3-(3,4-difluoro-2-methoxyphenoxy)-N-{3-[imino(methyl)oxo-λ^6-sulfanyl]phenyl}-5H,6H,7H-cyclopenta[c]pyridazine-4-carboxamide], the IC50 is, setting by setting: under setting [1], 200 to 500 nM; under setting [2], 200 to 500 nM.

For `COc1cc(C#N)ccc1Oc1nnc(C(F)(F)F)c(C)c1C(=O)Nc1cccc(C(=O)NCCO)c1` [Compound 1441, 3-(4-cyano-2-methoxy-phenoxy)-N-[3-(2-hydroxyethylcarbamoyl)phenyl]-5-methyl-6-(trifluoromethyl)pyridazine-4-carboxamide], the IC50 under setting [1] was in the range of 200 to 500 nM and the IC50 under setting [2] is 200 to 500 nM.

Regarding `COc1cc(C#N)ccc1Oc1nc(C(F)(F)F)cc(C)c1C(=O)Nc1cccc([S@](C)(=N)=O)c1` [Compound 1730, (R)-2-(4-cyano-2-methoxyphenoxy)-4-methyl-N-(3-(S-methylsulfonimidoyl)phenyl)-6-(trifluoromethyl)nicotinamide], the IC50 was at most 20 nM under setting [1] and at most 20 nM under setting [2].

Regarding `COc1ncc(C(N)=O)cc1Oc1ncc(C(F)(F)F)cc1C(=O)Nc1cccc(S(C)(=N)=O)c1` (stereo not drawn) [Compound 1622], the IC50 runs as follows: under setting [1], 200 to 500 nM; under setting [2], 200 to 500 nM.

With `COc1c(Oc2nnc(C(F)(F)F)c(C)c2C(=O)Nc2cccc(S(C)(=N)=O)c2)ccc(F)c1F` (single isomer, unassigned) [Compound 1474, 3-(3,4-difluoro-2-methoxy-phenoxy)-5-methyl-N-[3-(methylsulfonimidoyl)phenyl]-6-(trifluoromethyl)pyridazine-4-carboxamide], the IC50 under setting [2] was at most 20 nM.

With `COc1c(Oc2nc(C(F)(F)F)ccc2C(=O)Nc2cccc(S(C)(=N)=O)c2)ccc(F)c1F` (stereo not drawn) [Compound 1729, 2-(3,4-difluoro-2-methoxy-phenoxy)-N-[3-(methylsulfonimidoyl)phenyl]-6-(trifluoromethyl)pyridine-3-carboxamide], the IC50 is, setting by setting: under setting [1], at most 20 nM; under setting [2], at most 20 nM.

On to `COc1c(Oc2nnc(C(F)(F)F)c(C)c2C(=O)Nc2cccc(S(C)(=O)=O)c2)ccc(Cl)c1F` [Compound 1552, 3-(4-chloro-3-fluoro-2-methoxy-phenoxy)-5-methyl-N-(3-methylsulfonylphenyl)-6-(trifluoromethyl)pyridazine-4-carboxamide], for which the IC50 under setting [1] is at most 20 nM and the IC50 under setting [2] was at most 20 nM.

On to `CS(=N)(=O)c1cccc(NC(=O)c2cc(C(F)(F)F)cnc2OC2CC3(C2)CC(F)(F)C3)c1` (stereo not drawn) [Compound 1632], for which the IC50 runs as follows: under setting [1], 200 to 500 nM; under setting [2], 200 to 500 nM.
